{"source": "ChEMBL document CHEMBL1201862", "about": "“PubChem BioAssay data set” (2004)", "key": {"[1]": {"molecular_target": "T1, Heat shock factor protein 1 (Mus musculus, UniProt P38532)", "T1 sequence (P38532 whole entry)": "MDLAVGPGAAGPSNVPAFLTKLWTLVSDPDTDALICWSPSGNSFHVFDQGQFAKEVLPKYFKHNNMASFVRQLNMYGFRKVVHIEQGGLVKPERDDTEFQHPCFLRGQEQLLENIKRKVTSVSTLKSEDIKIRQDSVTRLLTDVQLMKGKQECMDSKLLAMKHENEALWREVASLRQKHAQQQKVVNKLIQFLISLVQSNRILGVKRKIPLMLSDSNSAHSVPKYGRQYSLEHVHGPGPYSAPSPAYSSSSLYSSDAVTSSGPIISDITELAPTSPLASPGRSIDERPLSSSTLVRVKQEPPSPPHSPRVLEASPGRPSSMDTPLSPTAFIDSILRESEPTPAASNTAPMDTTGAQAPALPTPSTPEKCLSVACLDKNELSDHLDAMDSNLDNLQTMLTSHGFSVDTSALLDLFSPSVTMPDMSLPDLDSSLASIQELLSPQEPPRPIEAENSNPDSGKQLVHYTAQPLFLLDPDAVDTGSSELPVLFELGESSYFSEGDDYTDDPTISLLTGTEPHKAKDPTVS", "experiment": "HSF1 potentiators in luciferase reporter cells, confirmation, cell-based, NIH3T3, luminescence, dose retest (AID 435004);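 further: stress induced by proteasome inhibitor MG132 added 30 min after compound; actives raise luminescence as potentiators of the MG132 stress response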", "assay_type": "functional"}, "Streptokinase A": {"molecular_target": "T2, Streptokinase A (Streptococcus pyogenes serotype M1, UniProt P10520)", "T2 sequence (P10520 whole entry)": "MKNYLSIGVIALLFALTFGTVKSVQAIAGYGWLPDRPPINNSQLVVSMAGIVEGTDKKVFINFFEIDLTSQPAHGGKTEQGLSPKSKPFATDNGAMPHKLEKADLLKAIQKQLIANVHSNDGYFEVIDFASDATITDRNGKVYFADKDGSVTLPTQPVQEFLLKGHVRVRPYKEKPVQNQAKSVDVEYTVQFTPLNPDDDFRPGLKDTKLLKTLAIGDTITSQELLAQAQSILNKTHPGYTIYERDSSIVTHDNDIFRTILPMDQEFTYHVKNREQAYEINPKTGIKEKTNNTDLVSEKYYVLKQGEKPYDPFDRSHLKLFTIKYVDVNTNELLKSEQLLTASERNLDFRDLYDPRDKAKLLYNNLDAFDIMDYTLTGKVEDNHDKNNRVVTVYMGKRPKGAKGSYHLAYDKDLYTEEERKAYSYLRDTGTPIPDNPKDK", "experiment": "S. pyogenes streptokinase expression inhibitors, potency, dose response, plasminogen activation absorbance, OD405 (AID 1914);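 further: secreted streptokinase activity via plasminogen activation per viability signal from cell pellet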", "assay_type": "functional, Streptococcus pyogenes M1 GAS"}, "[2]": {"experiment": "cytotoxicity in KRAS-transformed pancreatic duct cells, primary screen, cell-based, fluorescence, HTS (AID 431);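 further: cell line used: HPDE-C7K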", "assay_type": "functional", "conditions": "Homo sapiens"}, "Aspartyl aminopeptidase": {"molecular_target": "Aspartyl aminopeptidase (Plasmodium falciparum 3D7, UniProt Q8I2J3)"}, "[3]": {"molecular_target": "Dual specificity protein phosphatase 3 (Homo sapiens, UniProt P51452)", "experiment": "VHR1 phosphatase inhibitors, biochemical (AID 1878)"}, "[4]": {"molecular_target": "T3, Dual specificity protein phosphatase 6 (Rattus norvegicus, UniProt Q64346)", "T3 sequence (Q64346 whole entry)": "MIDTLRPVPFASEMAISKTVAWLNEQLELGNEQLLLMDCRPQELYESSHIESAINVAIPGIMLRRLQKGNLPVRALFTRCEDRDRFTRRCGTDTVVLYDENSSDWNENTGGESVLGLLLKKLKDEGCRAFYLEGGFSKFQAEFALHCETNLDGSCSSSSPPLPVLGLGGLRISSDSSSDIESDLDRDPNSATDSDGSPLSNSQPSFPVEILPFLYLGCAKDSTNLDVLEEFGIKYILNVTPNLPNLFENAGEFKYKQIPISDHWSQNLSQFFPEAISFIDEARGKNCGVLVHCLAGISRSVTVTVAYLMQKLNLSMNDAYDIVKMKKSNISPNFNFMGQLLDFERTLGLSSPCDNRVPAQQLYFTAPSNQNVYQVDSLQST", "experiment": "MKP-3 phosphatase inhibitors, primary screen, biochemical, rat enzyme, in vitro (AID 425)"}, "[5]": {"experiment": "SK-MEL-5 parental cell viability reduction, dose response, orthogonal assay for MITF inhibitor project, CellTiter-Glo luminescence, dry powder, set 8 (AID 651586)", "assay_type": "functional, cell-based"}, "[6]": {"molecular_target": "Receptor-type tyrosine-protein kinase FLT3 (Homo sapiens, UniProt P36888)", "assay_type": "functional"}, "[7]": {"molecular_target": "Mitogen-activated protein kinase 13 (Homo sapiens, UniProt O15264)", "sequence (O15264 whole entry)": "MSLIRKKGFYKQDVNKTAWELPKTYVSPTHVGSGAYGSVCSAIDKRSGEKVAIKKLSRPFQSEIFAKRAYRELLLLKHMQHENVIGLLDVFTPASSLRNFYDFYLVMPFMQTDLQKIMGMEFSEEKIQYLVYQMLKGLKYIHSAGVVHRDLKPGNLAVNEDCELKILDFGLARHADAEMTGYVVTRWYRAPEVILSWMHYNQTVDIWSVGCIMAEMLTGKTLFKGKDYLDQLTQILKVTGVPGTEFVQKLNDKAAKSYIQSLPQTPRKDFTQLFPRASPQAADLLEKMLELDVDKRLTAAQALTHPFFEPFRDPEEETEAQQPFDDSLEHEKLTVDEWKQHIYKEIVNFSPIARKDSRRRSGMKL", "assay_type": "functional"}, "[8]": {"molecular_target": "Lymphokine-activated killer T-cell-originated protein kinase (Homo sapiens, UniProt Q96KB5)", "sequence (Q96KB5 whole entry)": "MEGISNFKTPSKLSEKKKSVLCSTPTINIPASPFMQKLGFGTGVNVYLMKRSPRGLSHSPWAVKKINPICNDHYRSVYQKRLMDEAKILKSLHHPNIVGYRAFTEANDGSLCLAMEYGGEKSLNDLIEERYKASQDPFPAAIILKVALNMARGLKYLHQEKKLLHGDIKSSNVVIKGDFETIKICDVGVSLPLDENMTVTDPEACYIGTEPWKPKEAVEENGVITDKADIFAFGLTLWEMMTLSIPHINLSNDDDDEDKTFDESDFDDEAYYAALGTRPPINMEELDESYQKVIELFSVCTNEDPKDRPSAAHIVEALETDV", "assay_type": "functional"}, "[9]": {"molecular_target": "Casein kinase I isoform alpha (Homo sapiens, UniProt P48729)", "assay_type": "functional"}, "Activated CDC42 kinase 1": {"molecular_target": "Activated CDC42 kinase 1 (Homo sapiens, UniProt Q07912)", "experiment": "Navigating the Kinome. Panel member name: ACK1", "assay_type": "functional"}, "[10]": {"molecular_target": "Tyrosine-protein kinase FRK (Homo sapiens, UniProt P42685)", "assay_type": "functional"}, "[11]": {"molecular_target": "Serine/threonine-protein kinase PAK 1 (Homo sapiens, UniProt Q13153)", "sequence (Q13153 whole entry)": "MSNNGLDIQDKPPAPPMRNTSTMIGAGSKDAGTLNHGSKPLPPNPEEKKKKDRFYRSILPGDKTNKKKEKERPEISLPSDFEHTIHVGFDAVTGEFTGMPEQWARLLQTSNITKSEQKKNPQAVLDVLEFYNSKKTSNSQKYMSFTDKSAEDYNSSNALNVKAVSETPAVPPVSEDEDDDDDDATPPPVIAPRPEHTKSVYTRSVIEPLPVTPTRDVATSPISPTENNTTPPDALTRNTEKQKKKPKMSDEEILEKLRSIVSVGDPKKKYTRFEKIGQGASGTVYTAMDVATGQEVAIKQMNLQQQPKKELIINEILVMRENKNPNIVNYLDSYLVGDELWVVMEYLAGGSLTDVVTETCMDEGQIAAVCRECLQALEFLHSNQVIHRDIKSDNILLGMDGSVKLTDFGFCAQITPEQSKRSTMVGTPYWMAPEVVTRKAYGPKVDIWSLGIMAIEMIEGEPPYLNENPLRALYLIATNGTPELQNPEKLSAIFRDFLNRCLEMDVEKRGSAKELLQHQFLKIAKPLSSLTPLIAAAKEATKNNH", "assay_type": "functional"}, "[12]": {"molecular_target": "Serine/threonine-protein kinase 3 (Homo sapiens, UniProt Q13188)", "assay_type": "functional"}, "[13]": {"molecular_target": "Tyrosine-protein kinase Fer (Homo sapiens, UniProt P16591)", "sequence (P16591 whole entry)": "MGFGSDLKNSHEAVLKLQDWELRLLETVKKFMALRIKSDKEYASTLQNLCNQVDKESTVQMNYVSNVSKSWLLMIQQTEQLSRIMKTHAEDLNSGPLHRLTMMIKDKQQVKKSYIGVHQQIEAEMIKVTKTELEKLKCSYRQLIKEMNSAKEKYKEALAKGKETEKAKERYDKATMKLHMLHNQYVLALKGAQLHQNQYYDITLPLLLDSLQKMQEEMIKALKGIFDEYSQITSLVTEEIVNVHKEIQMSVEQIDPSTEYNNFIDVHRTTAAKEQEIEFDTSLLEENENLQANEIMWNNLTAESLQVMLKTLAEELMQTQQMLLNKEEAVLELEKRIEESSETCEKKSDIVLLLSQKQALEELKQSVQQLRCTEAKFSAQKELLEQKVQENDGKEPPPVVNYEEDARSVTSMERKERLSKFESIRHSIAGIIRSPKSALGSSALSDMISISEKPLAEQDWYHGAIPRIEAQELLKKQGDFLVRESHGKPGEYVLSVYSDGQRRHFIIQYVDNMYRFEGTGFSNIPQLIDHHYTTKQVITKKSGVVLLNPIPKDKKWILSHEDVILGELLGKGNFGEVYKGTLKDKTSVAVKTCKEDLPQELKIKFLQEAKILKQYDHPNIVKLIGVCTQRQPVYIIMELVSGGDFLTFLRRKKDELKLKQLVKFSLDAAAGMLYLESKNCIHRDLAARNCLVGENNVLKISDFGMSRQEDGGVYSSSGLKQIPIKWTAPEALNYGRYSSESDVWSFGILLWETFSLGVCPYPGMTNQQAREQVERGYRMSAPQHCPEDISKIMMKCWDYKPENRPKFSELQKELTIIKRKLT", "assay_type": "functional"}, "[14]": {"molecular_target": "Tyrosine-protein kinase Lyn (Homo sapiens, UniProt P07948)", "sequence (P07948 whole entry)": "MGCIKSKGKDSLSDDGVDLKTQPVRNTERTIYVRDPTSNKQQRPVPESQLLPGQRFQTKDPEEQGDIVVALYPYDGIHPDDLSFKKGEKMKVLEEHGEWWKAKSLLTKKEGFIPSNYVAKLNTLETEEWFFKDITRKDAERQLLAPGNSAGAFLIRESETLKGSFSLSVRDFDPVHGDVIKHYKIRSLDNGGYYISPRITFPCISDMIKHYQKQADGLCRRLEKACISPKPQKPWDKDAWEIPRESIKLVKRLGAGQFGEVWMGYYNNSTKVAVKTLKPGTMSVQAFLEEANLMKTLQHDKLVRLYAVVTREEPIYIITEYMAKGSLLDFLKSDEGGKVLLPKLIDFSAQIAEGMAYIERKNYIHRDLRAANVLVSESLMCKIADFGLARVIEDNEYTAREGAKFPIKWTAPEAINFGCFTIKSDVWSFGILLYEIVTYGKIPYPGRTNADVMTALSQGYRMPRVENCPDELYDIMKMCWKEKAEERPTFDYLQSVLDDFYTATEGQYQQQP", "assay_type": "functional"}, "[15]": {"molecular_target": "Proto-oncogene tyrosine-protein kinase receptor Ret (Homo sapiens, UniProt P07949)", "assay_type": "functional"}, "[16]": {"molecular_target": "Cyclin-dependent kinase 7 (Homo sapiens, UniProt P50613)", "assay_type": "functional"}, "[17]": {"molecular_target": "Serine/threonine-protein kinase MRCK alpha (Homo sapiens, UniProt Q5VT25)", "assay_type": "functional"}, "[18]": {"molecular_target": "Protein kinase C gamma type (Homo sapiens, UniProt P05129)", "assay_type": "functional"}, "[19]": {"molecular_target": "Mitogen-activated protein kinase 8 (Homo sapiens, UniProt P45983)", "sequence (P45983 whole entry)": "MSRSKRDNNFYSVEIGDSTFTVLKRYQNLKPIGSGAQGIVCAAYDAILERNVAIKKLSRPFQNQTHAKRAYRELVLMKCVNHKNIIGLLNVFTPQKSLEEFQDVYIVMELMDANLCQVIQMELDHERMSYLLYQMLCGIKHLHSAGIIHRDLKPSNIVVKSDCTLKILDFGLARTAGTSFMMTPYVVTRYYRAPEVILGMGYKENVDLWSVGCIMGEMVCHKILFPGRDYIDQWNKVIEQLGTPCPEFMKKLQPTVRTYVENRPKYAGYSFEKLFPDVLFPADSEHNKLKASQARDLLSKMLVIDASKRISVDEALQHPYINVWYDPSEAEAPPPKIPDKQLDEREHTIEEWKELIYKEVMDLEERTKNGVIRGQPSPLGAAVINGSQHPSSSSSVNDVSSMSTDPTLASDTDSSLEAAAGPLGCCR", "assay_type": "functional"}, "SRSF protein kinase 1": {"molecular_target": "SRSF protein kinase 1 (Homo sapiens, UniProt Q96SB4)", "sequence (Q96SB4 whole entry)": "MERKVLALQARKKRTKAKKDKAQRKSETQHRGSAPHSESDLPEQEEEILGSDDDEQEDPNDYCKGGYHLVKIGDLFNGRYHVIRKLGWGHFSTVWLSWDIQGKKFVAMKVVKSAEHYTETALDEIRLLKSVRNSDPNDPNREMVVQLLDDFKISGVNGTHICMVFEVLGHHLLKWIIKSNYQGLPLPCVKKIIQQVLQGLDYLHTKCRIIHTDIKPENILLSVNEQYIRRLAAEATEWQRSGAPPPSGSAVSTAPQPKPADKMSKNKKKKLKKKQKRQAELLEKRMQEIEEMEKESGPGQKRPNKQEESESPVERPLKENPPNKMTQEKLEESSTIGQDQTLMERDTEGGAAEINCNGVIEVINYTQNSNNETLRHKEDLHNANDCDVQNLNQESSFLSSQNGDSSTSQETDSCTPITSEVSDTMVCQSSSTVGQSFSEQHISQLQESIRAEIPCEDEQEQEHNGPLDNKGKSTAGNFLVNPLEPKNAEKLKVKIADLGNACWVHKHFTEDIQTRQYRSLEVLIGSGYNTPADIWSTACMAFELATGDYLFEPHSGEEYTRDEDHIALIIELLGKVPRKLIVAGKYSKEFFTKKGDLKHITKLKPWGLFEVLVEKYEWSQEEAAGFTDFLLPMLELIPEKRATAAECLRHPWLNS", "assay_type": "functional"}, "[20]": {"molecular_target": "Cyclin-dependent kinase 8 (Homo sapiens, UniProt P49336)", "experiment": "Navigating the Kinome. Panel member name: CDK8", "assay_type": "functional"}, "[21]": {"molecular_target": "Cell division cycle 7-related protein kinase (Homo sapiens, UniProt O00311)", "assay_type": "functional"}, "[22]": {"molecular_target": "Proto-oncogene tyrosine-protein kinase Src (Homo sapiens, UniProt P12931)", "sequence (P12931 2-536 limits assumed)": "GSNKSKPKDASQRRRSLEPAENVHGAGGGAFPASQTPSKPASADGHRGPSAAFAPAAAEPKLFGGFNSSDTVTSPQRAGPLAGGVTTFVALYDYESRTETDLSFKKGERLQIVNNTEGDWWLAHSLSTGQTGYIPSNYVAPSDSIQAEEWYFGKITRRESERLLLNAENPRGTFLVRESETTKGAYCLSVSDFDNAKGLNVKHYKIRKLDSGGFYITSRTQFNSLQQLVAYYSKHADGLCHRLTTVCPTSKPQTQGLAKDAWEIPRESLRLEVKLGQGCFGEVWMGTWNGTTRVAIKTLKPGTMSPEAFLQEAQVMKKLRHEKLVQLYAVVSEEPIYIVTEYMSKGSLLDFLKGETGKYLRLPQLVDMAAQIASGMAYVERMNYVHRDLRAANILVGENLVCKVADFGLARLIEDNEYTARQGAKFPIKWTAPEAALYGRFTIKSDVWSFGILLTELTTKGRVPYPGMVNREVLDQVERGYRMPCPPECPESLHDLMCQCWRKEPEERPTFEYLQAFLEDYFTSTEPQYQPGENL", "assay_type": "functional"}, "[23]": {"molecular_target": "BDNF/NT-3 growth factors receptor (Homo sapiens, UniProt Q16620)", "assay_type": "functional"}}, "note": "Calls of active or inactive are those of the source."}
{"smiles": "CCOC(=O)C(C(=O)OCC)c1cc(Br)c2noc3c2c1C(=O)c1ccccc1-3", "values": [{"measurement": "EC50", "setting": "[1]", "result": "> 260 µM (inconclusive)"}, {"measurement": "EC50", "setting": "Streptokinase A", "result": "11.9 µM (active)"}, {"measurement": "EC50", "setting": "[2]", "result": "3.06 µM (active)"}]}
{"smiles": "CS(=O)(=O)c1ccc2c(c1)SC1=NC(=O)/C(=C/c3ccc(O)c(O)c3)C(=N)N12", "values": [{"measurement": "IC50", "setting": "Aspartyl aminopeptidase", "result": "2.16 µM (active)"}, {"measurement": "IC50", "setting": "[3]", "result": "4.57 µM (active)"}, {"measurement": "IC50", "setting": "[4]", "result": "113 µM (not active)"}]}
{"smiles": "C=CCNC1=C(Cl)C(=O)c2ccccc2C1=O", "values": [{"measurement": "AC50", "setting": "[5]", "result": "4.58 µM (active)"}]}
{"smiles": "COc1ccc(C(=O)Nc2n[nH]c3ccc(-c4cn(Cc5ccccc5)nn4)cc23)cc1OC", "values": [{"measurement": "Ki", "setting": "[6]", "result": "> 1.26 µM (inactive)"}, {"measurement": "Ki", "setting": "[7]", "result": "0.501 µM (active)"}, {"measurement": "Ki", "setting": "[8]", "result": "> 10 µM (inactive)"}, {"measurement": "Ki", "setting": "[9]", "result": "0.398 µM (active)"}, {"measurement": "Ki", "setting": "Activated CDC42 kinase 1", "result": "> 3.98 µM (inactive)"}, {"measurement": "Ki", "setting": "[10]", "result": "0.0794 µM (active)"}, {"measurement": "Ki", "setting": "[11]", "result": "> 10 µM (inactive)"}, {"measurement": "Ki", "setting": "[12]", "result": "0.794 µM (active)"}, {"measurement": "Ki", "setting": "[13]", "result": "0.251 µM (active)"}, {"measurement": "Ki", "setting": "[14]", "result": "0.501 µM (active)"}, {"measurement": "Ki", "setting": "[15]", "result": "0.126 µM (active)"}, {"measurement": "Ki", "setting": "[16]", "result": "0.126 µM (active)"}, {"measurement": "Ki", "setting": "[17]", "result": "6.31 µM (active)"}, {"measurement": "Ki", "setting": "[18]", "result": "0.126 µM (active)"}, {"measurement": "Ki", "setting": "[19]", "result": "0.631 µM (active)"}, {"measurement": "Ki", "setting": "SRSF protein kinase 1", "result": "1.58 µM (active)"}, {"measurement": "Ki", "setting": "[20]", "result": "> 3.98 µM (inactive)"}, {"measurement": "Ki", "setting": "[21]", "result": "0.00126 µM (active)"}, {"measurement": "Ki", "setting": "[22]", "result": "0.316 µM (active)"}, {"measurement": "Ki", "setting": "[23]", "result": "> 5.01 µM (inactive)"}]}
